According to patent US20110098309A1, “METHODS OF INHIBITING THE FORMATION OF AMYLOID-BETA DIFFUSABLE LIGANDS USING ACYLHYDRAZIDE COMPOUNDS” (priority 2007, published 2011):

Molecular target: Aβ1-42 (Homo sapiens, UniProt P05067)
Experiment: FRET assay of Aβ1-42 oligomer (ADDL) assembly inhibition
Format: biochemical
Conditions: 0.2 μM FITC-Aβ(1-42) and 0.8 μM Aβ(1-42), 37° C., six concentrations from about 10 μM to about 0.03 μM
Excerpt: Fluorescence (or Förster) Resonance Energy Transfer (FRET) is a distance-dependent, non-radiative transfer of energy in which the de-excitation of one fluorophore (donor) is coupled to excitation of another fluorophore (acceptor). FRET occurs if (1) the quantum of energy emitted by a donor fluorophore corresponds to an acceptor fluorophore's excitation energy, (2) the orientations of donor and acceptor transition dipoles are nearly parallel and (3) the donor fluorescent emission spectrum overlaps the acceptor absorption spectrum.
In this assay, assembly of Aβ1-42 oligomer formation is monitored by FRET using N-terminal conjugates of fluorescein-Aβ1-42 as both the donor and acceptor fluorophore (fluorescein-fluorescein Ro˜45 Å). […] Inhibition of Aβ1-42 assembly is observed as the absence or attenuation of fluorescein quenching.
FRET and FP assays are performed in 384-well Corning Non-Binding Surface, black, opaque microtiter plates, and the assay buffer consists of 25 mM MOPS-Tris (pH 8.0) with 100 mM MgCl2. The assay volume, containing 0.2 μM FITC-Aβ(1-42) and 0.8 μM Aβ(1-42), is 50 μl and the temperature is 37° C. […] Kinetic traces are collected by recording fluorescence intensity and polarization readings every five minutes over about a three hour time course. […] Positive control reactions contain all buffer components in the absence of added small molecule or antibody reagents. To test for ADDL assembly inhibition, the compound was incubated with the peptide mixture at six concentrations from about 10 μM decreasing to about 0.03 μM.

Aβ1-42, sequence (P05067 672-713 limits assumed): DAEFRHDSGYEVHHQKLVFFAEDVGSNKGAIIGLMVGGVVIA

SMILES | IC50
O=C(N/N=C/c1cc(C2CCCCC2)cc(Cl)c1O)c1ccccc1O [Compound 46, N′-(3-chloro-5-cyclohexyl-2-hydroxybenzylidene)-2-hydroxybenzo-hydrazide] | 3.3 µM
O=C(N/N=C/c1cccc(O)c1O)c1ccccc1O [Compound 86, N′-(2,3-dihydroxy-benzylidene)-2-hydroxy-benzohydrazide] | 17.4 µM
Cc1ccc(/C=N/NC(=O)c2ccc3c(c2)OCO3)c(O)c1 [Compound 116, N′-(2-hydroxy-4-methylbenzylidene)benzo[d][1,3]dioxole-5-carbohydrazide] | 50 µM
Cc1nnsc1C(=O)N/N=C/c1cc(Cl)ccc1O [Compound 111, N′-(5-chloro-2-hydroxybenzylidene)-4-methyl-1,2,3-thiadiazole-5-carbohydrazide] | 42.9 µM
COc1ccc(O)c(/C=N/NC(=O)c2ccc3ccccc3c2O)c1 [Compound 38, 1-hydroxy-N′-(2-hydroxy-5-methoxybenzylidene)-2-naphtho-hydrazide] | 1.2 µM
COc1ccc(O)c(/C=N/NC(=O)c2cc(Cl)ccc2O)c1 [Compound 84, 5-chloro-2-hydroxy-N′-(2-hydroxy-5-methoxy-benzylidene)benzohydrazide] | 15.5 µM
COc1ccc(O)c(/C=N/NC(=O)c2ccc(F)cc2O)c1 [Compound 67, 4-fluoro-2-hydroxy-N′-(2-hydroxy-5-methoxy-benzylidene)benzohydrazide] | 8.3 µM
Cn1cc(I)c(C(=O)N/N=C/c2c(O)ccc3ccccc23)n1 [Compound 54, N′-((2-hydroxy-naphthalen-1-yl)methylene)-4-iodo-1-methyl-1H-pyrazole-3-carbohydrazide] | 5 µM
O=C(N/N=C/c1ccc2ccccc2c1O)c1ccccc1O [Compound 72, 2-hydroxy-N′-((1-hydroxy-naphthalen-2-yl)methylene)benzohydrazide] | 10.4 µM
O=C(C/C(=N/NC(=O)c1cccc2cc[nH]c12)C(F)(F)F)c1cccs1 [Compound 22, N′-(1,1,1-trifluoro-4-oxo-4-(thiophen-2-yl)butan-2-ylidene)-1H-indole-7-carbohydrazide] | 13.5 µM
O=C(N/N=C/c1cc(Cl)ccc1NS(=O)(=O)c1ccc(F)cc1F)c1ccccc1O [Compound 114, N-(4-chloro-2-((2-(2-hydroxybenzoyl)hydrazono)methyl)phenyl)-2,4-difluorobenzenesulfonamide] | 46.7 µM
Nc1ccc(Cl)cc1/C=N/NC(=O)c1ccccc1N [Compound 93, 2-amino-N′-(2-amino-5-chlorobenzylidene)benzohydrazide] | 23.9 µM
O=C(C/C(=N/NC(=O)c1sc2ccccc2c1Cl)C(F)(F)F)c1cccs1 [Compound 14, 3-chloro-N′-(1,1,1-trifluoro-4-oxo-4-(thiophen-2-yl)butan-2-ylidene)benzo[b]thiophene-2-carbohydrazide] | 9.5 µM
COc1ccc(O)c(/C=N/NC(=O)c2scc(C)c2Cl)c1 [Compound 70, 3-chloro-N′-(2-hydroxy-5-methoxy-benzylidene)-4-methylthiophene-2-carbohydrazide] | 9.4 µM
C/C(=N\NC(=O)c1cc(C)n[nH]1)c1ccccc1O [Compound 112, N′-(1-(2-hydroxyphenyl)ethylidene)-3-methyl-1H-pyrazole-5-carbohydrazide] | 45.4 µM
O=C(N/N=C/c1cccc(F)c1O)c1ccccc1O [Compound 74, N′-(3-fluoro-2-hydroxy-benzylidene)-2-hydroxy-benzohydrazide] | 10.9 µM
O=C(N/N=C/c1c(O)ccc2ccccc12)c1cc(C2CC2)n[nH]1 [Compound 103, 3-cyclopropyl-N′-((2-hydroxynaphthalen-1-yl)methylene)-1H-pyrazole-5-carbohydrazide] | 34.5 µM

SMILES | IC50
O=C(N/N=C(/CC(=O)N1CCN(Cc2ccccc2)CC1)C(F)(F)F)c1ccccc1O [Compound 3, N′-(4-(4-benzylpiperazin-1-yl)-1,1,1-trifluoro-4-oxobulan-2-ylidene)-2-hydroxy-benzohydrazide] | 5.2 µM
COc1cccc(-c2ccc(O)c(/C=N/NC(=O)c3ccccc3O)c2)c1 [Compound 48, 2-hydroxy-N′-((4-hydroxy-3′-methoxybiphenyl-3-yl)methylene) benzohydrazide] | 3.7 µM
Cc1cccc(/C=N/NC(=O)c2ccccc2O)c1O [Compound 96, 2-hydroxy-N′-(2-hydroxy-3-methylbenzylidene)benzohydrazide] | 28.6 µM
CS(=O)(=O)Nc1ccccc1C(=O)N/N=C(/CC(=O)c1cccs1)C(F)(F)F [Compound 5, N-(2-(2-(1,1,1-trifluoro-4-oxo-4-(thiophen-2-yl)butan-2-ylidene)hydrazine-carbonyl)phenyl)methanesulfonamide] | 6 µM
O=C(C/C(=N/NC(=O)c1ccccc1O)C(F)(F)F)c1ccc(Cl)s1 [Compound 19, N′-(4-(5-chlorothiophen-2-yl)-1,1,1-trifluoro-4-oxobutan-2-ylidene)-2-hydroxy benzohydrazide] | 11.5 µM
C=CCc1cccc(/C=N/NC(=O)c2ccc(I)cc2)c1O [Compound 60, N′-(3-allyl-2-hydroxy-benzylidene)-4-iodo-benzohydrazide] | 6.5 µM
CC(C)(C)C(=O)C/C(=N/NC(=O)c1ccccc1O)C(F)(F)F [Compound 7, 2-hydroxy-N′-(1,1,1-trifluoro-5,5-dimethyl-4-oxohexan-2-ylidene)benzohydrazide] | 7.4 µM
O=C(C/C(=N/NC(=O)c1cc2ccccc2s1)C(F)(F)F)c1cccs1 [Compound 28, N′-(1,1,1-trifluoro-4-oxo-4-(thiophen-2-yl)butan-2-ylidene)benzo[b]thiophene-2-carbohydrazide] | 19.4 µM
CCOc1cccc(/C=N/NC(=O)c2ccccc2O)c1O [Compound 106, N′-(3-ethoxy-2-hydroxybenzylidene)-2-hydroxybenzohydrazide] | 39.2 µM
CCOc1ccc(O)c(/C=N/NC(=O)c2ccccc2O)c1 [Compound 85, N′-(5-ethoxy-2-hydroxy-benzylidene)-2-hydroxy-benzohydrazide] | 16 µM
O=C(N/N=C/c1c(O)cccc1O)c1ccccc1O [Compound 41, N′-(2,6-dihydroxybenzylidene)-2-hydroxy benzohydrazide] | 2.3 µM
COc1ccc(/C=N/NC(=O)c2ccccc2O)c(O)c1 [Compound 81, 2-hydroxy-N′-(2-hydroxy-4-methoxy-benzylidene)benzohydrazide] | 15 µM
O=C(N/N=C/c1cc(F)cc(F)c1O)c1ccccc1O [Compound 101, N′-(3,5-difluoro-2-hydroxybenzylidene)-2-hydroxybenzohydrazide] | 33.4 µM
O=C(C/C(=N\NC(=O)c1ccccc1O)C(F)(F)F)c1ccco1 [Compound 1, 2-hydroxy-N′-(1,1,1-trifluoro-4-(furan-2-yl)-4-oxobutan-2-ylidene)benzohydrazide] | 4.2 µM
C/C(CC(=O)c1ccco1)=N\NC(=O)c1sc2cc(F)ccc2c1Cl [Compound 4, 3-chloro-6-fluoro-N′-(4-(furan-2-yl)-4-oxobutan-2-ylidene)benzo[b]-thiophene-2-carbohydrazide] | 5.9 µM
Cc1occc1C(=O)N/N=C/c1cc(Br)cc(Br)c1O [Compound 49, N′-(3,5-dibromo-2-hydroxy-benzylidene)-2-methylfuran-3-carbohydrazide] | 3.8 µM
